Assay results published in PubChem BioAssay (NCI).
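Method: 48-hour compound exposure of cells in 96-well plates, five concentrations, linear interpolation of endpoints. At the GI50, growth is halved. TGI is the concentration that stops growth completely.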

Columns and labels:
Assay in all cases: growth of human tumour cells (NCI), 48 h
[1] = tested on: BT-549 breast
[2] = tested on: SN12C renal
[3] = tested on: SK-MEL-2 melanoma
[4] = tested on: RXF 393 renal
[5] = tested on: MCF7 breast
[6] = tested on: U251 CNS
[7] = tested on: UO-31 renal
[8] = tested on: HL-60(TB) leukemia
[9] = tested on: CCRF-CEM leukemia
[10] = tested on: KM12 colon
[11] = tested on: HCT-15 colon
[12] = tested on: NCI-H226 lung
[13] = tested on: M14 melanoma
[14] = tested on: T-47D breast
[15] = tested on: K-562 leukemia
[16] = tested on: MDA-MB-435
[17] = tested on: SW-620 colon
[18] = tested on: NCI-H460 lung
[19] = tested on: SF-268 CNS
[20] = tested on: RPMI-8226 leukemia
[21] = tested on: HOP-62 NSCLC
[22] = tested on: OVCAR-8 ovarian
[23] = tested on: MOLT-4 leukemia
[24] = tested on: ACHN renal
[25] = tested on: NCI-H522 lung
[26] = tested on: HCC-2998 colon
[27] = tested on: SF-539 CNS
[28] = tested on: SF-295 CNS
[29] = tested on: LOX IMVI melanoma
[30] = tested on: UACC-62 melanoma
[31] = tested on: DU-145 prostate
[32] = tested on: SK-MEL-5 melanoma
[33] = tested on: SK-MEL-28 melanoma
[34] = tested on: OVCAR-3 ovarian
[35] = tested on: UACC-257 melanoma
[36] = tested on: A549 NSCLC
[37] = tested on: A498 renal
[38] = tested on: HT29 colon
[39] = tested on: HS 578T breast
[40] = tested on: IGROV1 ovarian
[41] = tested on: OVCAR-4 ovarian
[42] = tested on: 786-0 renal
[43] = tested on: CAKI-1 renal
[44] = tested on: PC-3 prostate
[45] = tested on: HCT-116 colon
[46] = tested on: EKVX NSCLC
[47] = tested on: COLO 205 colon
[48] = tested on: SNB-19 CNS
[49] = tested on: TK-10 renal
[50] = tested on: NCI/ADR-RES ovarian
[51] = tested on: MDA-MB-231 breast
[52] = tested on: OVCAR-5 ovarian
[53] = tested on: SNB-75 CNS
[54] = tested on: SK-OV-3 ovarian
[55] = tested on: MALME-3M melanoma
[56] = tested on: HOP-92 NSCLC
[57] = tested on: NCI-H23 lung

SMILES: N#Cc1cc2c(cc1Cl)SC(=Nc1ccccc1)N(S(=O)(=O)c1ccc(Cl)cc1)S2(=O)=O
- GI50 [1]: 13.4 µM
- TGI [1]: 30.4 µM
- GI50 [2]: 17.2 µM
- TGI [2]: 37.1 µM
- GI50 [3]: 3.61 µM
- TGI [3]: 16.8 µM
- GI50 [4]: 5.68 µM
- TGI [4]: 30.1 µM
- GI50 [5]: 14.8 µM
- TGI [5]: 37.6 µM
- GI50 [6]: 17.7 µM
- TGI [6]: 36.6 µM
- GI50 [7]: 9.84 µM
- TGI [7]: 26.9 µM
- GI50 [8]: > 100 µM
- TGI [8]: > 100 µM
- GI50 [9]: 20.6 µM
- TGI [9]: 39.1 µM
- GI50 [10]: 14 µM
- TGI [10]: 28.1 µM
- GI50 [11]: 15.2 µM
- TGI [11]: 33.6 µM
- GI50 [12]: 17.7 µM
- TGI [12]: 42.9 µM
- GI50 [13]: 10 µM
- TGI [13]: 24.8 µM
- GI50 [14]: 19.9 µM
- TGI [14]: 64.1 µM
- GI50 [15]: 50.5 µM
- TGI [15]: > 100 µM
- GI50 [16]: 13 µM
- TGI [16]: 27.8 µM
- GI50 [17]: 17.4 µM
- TGI [17]: 39.5 µM
- GI50 [18]: 20.8 µM
- TGI [18]: 53.5 µM
- GI50 [19]: 16.9 µM
- TGI [19]: 41.6 µM
- GI50 [20]: 10.6 µM
- TGI [20]: 51.7 µM
- GI50 [21]: 13.5 µM
- TGI [21]: 29.9 µM
- GI50 [22]: 18 µM
- TGI [22]: 51 µM
- GI50 [23]: 28.7 µM
- TGI [23]: > 100 µM
- GI50 [24]: 17.7 µM
- TGI [24]: 33.2 µM
- GI50 [25]: 3.29 µM
- TGI [25]: 17.3 µM
- GI50 [26]: 17.8 µM
- TGI [26]: 33 µM
- GI50 [27]: 19.8 µM
- TGI [27]: 39.8 µM
- GI50 [28]: 22.5 µM
- TGI [28]: 72.7 µM
- GI50 [29]: 10.8 µM
- TGI [29]: 28.8 µM
- GI50 [30]: 14.7 µM
- TGI [30]: 29 µM
- GI50 [31]: 16.6 µM
- TGI [31]: 35.7 µM
- GI50 [32]: 13.4 µM
- TGI [32]: 28.7 µM
- GI50 [33]: 17.1 µM
- TGI [33]: 37.7 µM
- GI50 [34]: 4.95 µM
- TGI [34]: 17.9 µM
- GI50 [35]: 18.6 µM
- TGI [35]: 40.4 µM
- GI50 [36]: 20.3 µM
- TGI [36]: 54.5 µM
- GI50 [37]: 16.4 µM
- TGI [37]: 32.8 µM
- GI50 [38]: 31 µM
- TGI [38]: > 100 µM
- GI50 [39]: 21.6 µM
- TGI [39]: 57.8 µM
- GI50 [40]: 5.56 µM
- TGI [40]: 21.2 µM
- GI50 [41]: 19 µM
- TGI [41]: 42.2 µM
- GI50 [42]: 14.2 µM
- TGI [42]: 28.6 µM
- GI50 [43]: 12.3 µM
- TGI [43]: 27.2 µM
- GI50 [44]: 17.5 µM
- TGI [44]: 38.2 µM
- GI50 [45]: 3.78 µM
- TGI [45]: 18 µM
- GI50 [46]: 16.9 µM
- TGI [46]: 34.4 µM
- GI50 [47]: 32 µM
- TGI [47]: > 100 µM
- GI50 [48]: 35.5 µM
- TGI [48]: > 100 µM
- GI50 [49]: 0.656 µM
- TGI [49]: 3.64 µM
- GI50 [50]: 18 µM
- TGI [50]: 44.6 µM
- GI50 [51]: 14.5 µM
- TGI [51]: 34.5 µM
- GI50 [52]: 16.8 µM
- TGI [52]: 32.9 µM
- GI50 [53]: 18.9 µM
- TGI [53]: 42.2 µM
- GI50 [54]: 20 µM
- TGI [54]: 40.8 µM

SMILES: CCCCC(CCCC)=NNC(=S)SC
- TGI [1]: > 100 µM
- TGI [2]: > 100 µM
- TGI [3]: > 100 µM
- TGI [4]: > 100 µM
- TGI [5]: > 100 µM
- TGI [6]: > 100 µM
- TGI [7]: > 100 µM
- TGI [8]: 50.2 µM
- TGI [11]: > 100 µM
- TGI [12]: 57.6 µM
- TGI [13]: 44.3 µM
- TGI [14]: 74.1 µM
- TGI [15]: > 100 µM
- TGI [16]: 47 µM
- TGI [17]: > 100 µM
- TGI [18]: > 100 µM
- TGI [19]: > 100 µM
- TGI [21]: > 100 µM
- TGI [22]: 44.4 µM
- TGI [23]: 43.6 µM
- TGI [24]: > 100 µM
- TGI [55]: 37.4 µM
- TGI [56]: > 100 µM
- TGI [25]: 48.8 µM
- TGI [26]: 54.4 µM
- TGI [27]: 67 µM
- TGI [29]: > 100 µM
- TGI [30]: 57.8 µM
- TGI [57]: > 100 µM
- TGI [31]: > 100 µM
- TGI [32]: 39.3 µM
- TGI [33]: > 100 µM
- TGI [35]: 75.7 µM
- TGI [36]: > 100 µM
- TGI [37]: > 100 µM
- TGI [38]: > 100 µM
- TGI [39]: > 100 µM
- TGI [41]: 66.3 µM
- TGI [42]: > 100 µM
- TGI [44]: > 100 µM
- TGI [45]: 38.6 µM
- TGI [46]: > 100 µM
- TGI [47]: > 100 µM
- TGI [48]: > 100 µM
- TGI [49]: 69.1 µM
- TGI [50]: > 100 µM
- TGI [51]: > 100 µM
- TGI [52]: > 100 µM
- TGI [53]: > 100 µM
- TGI [54]: > 100 µM
